Assay results from patent US11752116B2, “Method of viral inhibition” (priority 2013, dated 2023).

Legend:
[1] = system: West Nile virus, Kunjin strain (WNVKUN); assay: West Nile virus (Kunjin strain) infection of Vero cells, plaque assay; assay type: cell-based; conditions: 10 μM, 4 h incubation of Vero cells at the time of infection
Procedure: FIG. 9C. Viral titre from a plaque assay conducted from Vero cells infected with West Nile virus (Kunjin strain; WNVKUN) after treatment with 10 μM 4-HPR for 4 h.

DENV-2 [2] = assay: DENV-2 infectivity assay in Vero cells, viral RNA copies in culture medium by RT-PCR; assay type: cell-based; conditions: MOI of 1
Procedure: To test the specificity of 4-HPR and 4-oxo-4-HPR for anti-DENV activity Vero cells were infected with DENV-2 with a multiplicity of infection (MOI) of 1, in the presence of drug diluent (untreated) or the indicated compounds (10 μM in FIG. 3A, or 10 μM or 5 μM as indicated in FIG. 3B) for 2 h, followed by removal of the virus/drug inoculums, and addition of fresh 2% FCS maintenance medium. At 24 h post infection (p.i.) the culture medium was collected and the viral RNA extracted using QIAamp viral RNA mini kit (Qiagen). Absolute RNA copies present in each sample were determined by Taqman One Step RT-PCR (Applied Biosystems), as an estimate of virus titre by extrapolation from a standard curve generated from in vitro transcribed DENV RNA. Data shown are the mean+standard error of the mean (SEM) for 3 (FIG. 3A) or 2 (FIG. 3B) independent experiments. Statistical analysis (Student's ttest) was performed using GraphPad Prism software.

DENV-2 [3] = assay: Delayed addition in DENV-2 infected Huh-7 cells, viral titre by plaque assay; assay type: cell-based; conditions: 7.5 μM added 12 h p.i., at 60 h p.i.
Procedure: To gain further insight into the mode of action of 4-HPR, the human liver carcinoma cell line, Huh-7 cells were infected with DENV-2 (MOI of 1), followed by delayed addition of drug diluent DMSO (DENV only), 7.5 μM 4-HPR, 7.5 μM 4-MPR or 10 μM NITD008 (a previously described adenosine nucleoside inhibitor), 12 h post infection. Cells were lysed at the indicated times, RNA was extracted by Trizol and analysed by qPCR with fold change in expression of NS1 calculated relative to the untreated control (FIG. 5B). Concurrently, culture medium was collected and viral titres determined by plaque assay (FIG. 5C).

DENV-3 [4] = assay: Cell-based flavivirus immunodetection assay in BHK-21 cells, DENV-3; conditions: MOI of 0.3, 48 h p.i.
Procedure: (§1) To investigate this, BHK-21 cells were infected with DENV serotypes 1, 2, 3 or 4 (MOI of 0.3) for 1 h in the presence of 4-HPR or 4-MPR (concentrations as indicated in FIG. 6A). Virus inoculum was removed and fresh media containing the indicated compounds was added. Virus infection rates were determined 48 h p.i. using a cell-based flavivirus immunodetection assay. Briefly, cells were fixed and stained for DENV structural protein, E, followed by addition of Alexa Fluor 488 anti-mouse IgG. Viral antigen quantification was performed using Imagexpress. Data shown are representative of a single experiment

[5] = up to 4,000 mg/m^2/day, daily for 28 days, including in children; cited from earlier work
DENV-2 [6] = assay: Time-of-addition DENV-2 assay in Vero cells, intracellular viral RNA by qRT-PCR; assay type: cell-based; conditions: 10 μM for 2 h, added prior to, during, or up to 24 h p.i.
Procedure: To investigate whether 4-HPR can inhibit DENV-2 replication when added prior to infection or post infection (p.i.), 10 μM drug or DMSO (drug diluent) was added to Vero cells 2 h prior to infection, for 2 h during infection, 2 h p.i., or 24 h p.i. In each instance the drug was incubated with the cells for 2 h then removed. Infections were performed for 2 h (MOI of 1) followed by analysis of intracellular viral RNA by qRT-PCR 48 h p.i. Data shown are the mean+SD from one experiment, representative of three independent assays.

Vero cells = assay: XTT cell viability assay in Vero cells; assay type: cell-based; conditions: 24 h, up to 25 μM
Procedure: To determine the effect of 4-HPR on cell viability, and to ensure that the reduced viral titres were not due to compound toxicity, XTT reagent was used to measure mitochondrial activity of drug treated cells. Briefly, Vero cells were incubated with 0, 1, 10 or 25 μM 4-HPR for 24 h. XTT reagent was added directly to cells and incubated for 6 h at 37° C. prior to spectrophotometric analysis. Data shown are the mean+SD of a single experiment performed in triplicate wells.

DENV-4 = assay: Cell-based flavivirus immunodetection assay in BHK-21 cells, DENV-4; conditions: Dengue virus, DENV4, BHK-21, 48 h, read-out: EC50, DENV-4 replication
Procedure: as §1

DENV-2 NS5 / IMPαΔIBB = DENV-2 NS5 / IMPαΔIBB (Dengue virus type 2, UniProt P14340); assay: AlphaScreen binding of His6-NS5 to IMPαΔIBB
Procedure: (§2) To investigate the specificity of 4-HPR inhibition of NS5-importin association, the binding of 30 nM His6-NS5 to 10 nM IMPα/β, (IMPα/β heterodimer containing biotinylated IMPβ1), 3 nM IMPαΔIBB (biotinylated IMPa with the IMPβ-binding domain removed), or 3 nM biotinylated IMPβ1, in the presence of increasing concentrations of 4-HPR, was investigated.

[7] = Cytotoxicity analysis in PBMCs; assay type: cell-based; conditions: human
DENV-1 [8] = assay: Plaque assay in Huh-7 cells, DENV-1; assay type: cell-based; conditions: Dengue virus, DENV1, Huh-7, 48 h, read-out: EC50, infectious virus titre DENV 1
Procedure: (§3) To ensure the antiviral activity of 4-HPR is not cell-line specific Huh-7 cells were also infected with DENV-1, 2, 3 or 4 (MOI of 0.3) in the presence of increasing concentrations of 4-HPR, with infectious virus titres determined by plaque assay at 48 h p.i.

DENV-3 [9] = assay: Plaque assay in Huh-7 cells, DENV-3; assay type: cell-based; conditions: Dengue virus, DENV3, Huh-7, 48 h, read-out: EC50, infectious virus titre DENV 3
Procedure: as §3

DENV-2 NS5 / IMPα/β = DENV-2 NS5 / IMPα/β (Dengue virus type 2, UniProt P14340); assay: AlphaScreen binding of His6-NS5 to IMPα/β heterodimer
Procedure: AlphaScreen®, a luminescent bead-based assay that measures direct protein-protein interactions, was used to examine the binding of 3 nM His6-NS5 to 10 nM IMPα/β (IMPα/β heterodimer containing biotinylated IMPβ1) in the presence of increasing concentrations of 4-HPR, 4-MPR or ATRA (FIG. 1A), or 4-oxo-4-HPR, 4-HPR or 4-MPR (FIG. 1B). Data are the mean±standard deviation (SD) of triplicate wells from a single typical experiment.
as §2

DENV-1 [10] = assay: Cell-based flavivirus immunodetection assay in BHK-21 cells, DENV-1; conditions: MOI of 0.3, 48 h p.i.
Procedure: as §1

## CC1=C(/C=C/C(C)=C/C=C/C(C)=C/C(=O)Nc2ccc(O)cc2)C(C)(C)CCC1 [4-HPR, N-(4-hydroxyphenyl) retinamide]
[1]
  reduction in infectious virus produced (WNVKUN): 89%
DENV-2 [2]; 5 μM compound for 2 h during infection
  reduction in viral RNA copies at 24 h p.i.: ~1 log
DENV-2 [2]; 10 μM compound for 2 h during infection
  reduction in viral RNA copies at 24 h p.i.: 2 log
DENV-2 [3]
  virus titre lower than untreated and 4-MPR-treated controls: 3 logs
DENV-3 [4]
  EC50, DENV-3 replication: low EC50
[5]
  toxicity profile in cancer treatment: favourable toxicity profiles
DENV-2 [6]
  intracellular DENV-2 RNA copies 48 h p.i.: substantial reduction
Vero cells
  effect on cell viability (XTT): no effect on cell viability
DENV-4
  EC50: 840 nM
DENV-2 NS5 / IMPαΔIBB
  IC50: 1600 nM
[7]
  CC50 at 48 h: > 13000 nM
DENV-1 [8]
  EC50: 2600 nM
DENV-3 [9]
  EC50: 1400 nM
DENV-2 NS5 / IMPα/β
  IC50: 1200 nM
DENV-2 NS5 / IMPα/β; 3 nM His6-NS5, 10 nM IMPα/β, increasing concentrations of compound
  block of association of DENV-2 NS5 with IMPα/β: able to block association
DENV-1 [10]
  EC50, DENV-1 replication: low EC50
